From patent publication US6630483B2, “Phenanthridine-N-oxides” (Altana Pharma AG, priority 2000, dated 2003)

Assays:
PDE IV = experiment: Inhibition of PDE4 activity (method of Bauer and Schwabe, microtiter plates); format: biochemical
Description: The activity test can be carried out, for example, according to the method of Bauer and Schwabe. For this, the method is adapted to microtiter plates (Naunyn-Schmiedeberg's Arch. Pharmacol. 1980, 311, 193-198). The PDE reaction takes place in the first step here. In a second step, the resulting 5′-nucleotide is cleaved by a 5′-nucloetidase of the snake venom of Crotalus atrox to the uncharged nucleoside. In the third step, the nucleoside is separated from the remaining charged substrate on ion-exchange columns. The columns are eluted directly into minivials, into which 2 ml of scintillator fluid are additionally added for counting, using 2 ml of 30 mM ammonium formate (pH 6.0).

COc1cc2c(cc1OC)[C@@H]1CCCC[C@@H]1[N+]([O-])=C2c1ccc(S(C)(=O)=O)cc1 [Compound 1, (−)-cis-8,9-Dimethoxy-6-(4-methanesulfonylphenyl)-1,2,3,4,4a,10b-hexahydrophenanthridine-N-oxide]
-log IC50 (PDE IV): 6.09
melting point: 229 to 231 °C
